Experimental findings from US7232912B2, “Indazole compounds, pharmaceutical compositions, and methods for mediating or inhibiting cell proliferation” (Agouron Pharmaceuticals, Inc., priority 2000, dated 2007) are described below.

Each structure is given as a SMILES string.

Assay type in all cases: biochemical
One experiment addresses CDK4/cyclin D3 (Homo sapiens, UniProt P11802). In words: Inhibition of CDK4/Cyclin D Retinoblastoma Kinase Activity. The note with it: apparent Ki. The essentials: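 Human CDK4/cyclin D3 (full-length or cyclin D3 1–264), insect-cell expressed, at 5 or 50 nM with His-tagged Rb 386–928 substrate, 25 μM ATP plus [32P/33P]ATP, pH 7.4, 2% DMSO, 30 °C for 20 min; tight binders used 5 nM enzyme for 60 min. Filter-captured phospho-Rb quantified by phosphorimager. Apparent Ki from competitive or tight-binding inhibition fits.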

Another experiment deals with T1, CDK2/cyclin A (Homo sapiens, UniProt P24941).
T1 construct: made in house; host or cells: CDK2: insect cells (baculovirus); cyclin A: E. coli
The experiment in a line: Inhibition of CDK2/Cyclin A Retinoblastoma Kinase Activity. The following applies: apparent Ki. Summed up:
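Baculovirus-expressed CDK2 complexed with proteolyzed cyclin A, at 150 nM or 5 nM, phosphorylating an Rb fragment with 25 µM [32/33P]ATP in HEPES pH 7.4, 2% DMSO. Reactions run 20 min at 30°C, EDTA-stopped, filter-captured; apparent Ki from competitive or tight-binding competitive fits.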

The target in the next experiment is T2, FGFR1 tyrosine kinase (Homo sapiens, UniProt P11362, C488A/C584S/L457V).
T2 construct: the cytosolic domain of FGFR1 tyrosine kinase (amino acids 456–766); made in house; host or cells: Sf9 insect cells (baculovirus)
The experiment in a line: Inhibition of phosphorylated FGF receptor tyrosine kinase activity. The following applies: for inhibition at 1 µM: read-out: FGF % Inhib. at 1 μM. How it is done: Inhibition of Phosphorylated FGF Receptor and LCK Tyrosine Kinase Activity
Cloning, expression and purification of the cytosolic domain of FGFR1 tyrosine kinase (amino acids 456–766) containing three amino acid substitutions (L457V, C488A, and C584S) were conducted as previously described (Mohammadi, M., Schlessinger, J., & Hubbard, S. R. (1996) Cell 86, 577–587). This domain was expressed in Sf9 insect cells using a baculovirus expression vector, and protein was purified using conventional techniques. The LCK tyrosine kinase was expressed in insect cells as an N-terminal deletion starting from amino acid 223 to the end of the protein at amino acid 509. The N-terminus of the protein also had two amino acid substitutions, P223M and C 224D. Kinases were purified using conventional chromatographic methods.
Tyrosine kinase activity was measured using a coupled, continuous spectrophotometric assay, in which production of phosphorylated poly(Glu, Tyr; 4:1) substrate and ADP is coupled to the pyruvate kinase-catalyzed transfer of a phosphate from phosphoenolpyruvate to ADP, with generation of pyruvate and regeneration of ATP. Pyruvate production is in turn coupled to the lactate dehydrogenase-catalyzed reduction of pyruvate to form lactate, with concomitant conversion of NADH to NAD+. Loss of NADH is monitored by measuring absorbance at 340 nm (see e.g., Technikova-Dobrova et al., “Spectrophotometric determination of functional characteristics of protein kinases with coupled enzymatic assay,” FEBS Letters, vol. 292 (1991), pp. 69–72). Enzyme activity was measured in the presence of 200 mM HEPES (pH 7.5), 2 mM phosphoenolpyruvate, 0.3 mM NADH, 20 mM MgCl2, 100 μM ATP, 5 mM DTT, 5.1 or 25 mM poly (Glu,Tyr) 4:1 for P-FGF or P-LCK assays, respectively, and 15 units/mL each of pyruvate kinase and lactate dehydrogenase. Phosphorylated FGF receptor kinase was present at 100 nM and phosphorylated LCK kinase was present at 50 nM. Assays were performed under initial rate conditions at 37° C., and rates were corrected for any background rate measured in the absence of enzyme. Percent inhibition was calculated relative to control enzyme assayed in the presence of 2% (v/v) DMSO.

Sequence of CDK4/cyclin D3 (P11802 2-303 limits assumed): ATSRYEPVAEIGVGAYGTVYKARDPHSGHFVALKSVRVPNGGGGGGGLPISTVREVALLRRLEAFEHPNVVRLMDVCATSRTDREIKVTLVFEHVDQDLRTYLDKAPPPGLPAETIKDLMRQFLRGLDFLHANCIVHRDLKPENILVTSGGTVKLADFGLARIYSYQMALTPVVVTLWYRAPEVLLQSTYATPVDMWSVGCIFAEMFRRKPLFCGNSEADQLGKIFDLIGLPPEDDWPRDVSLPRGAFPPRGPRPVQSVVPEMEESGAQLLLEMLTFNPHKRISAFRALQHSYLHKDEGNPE
Sequence of CDK4/cyclin D3 (P30281 1-264 limits assumed, further chain): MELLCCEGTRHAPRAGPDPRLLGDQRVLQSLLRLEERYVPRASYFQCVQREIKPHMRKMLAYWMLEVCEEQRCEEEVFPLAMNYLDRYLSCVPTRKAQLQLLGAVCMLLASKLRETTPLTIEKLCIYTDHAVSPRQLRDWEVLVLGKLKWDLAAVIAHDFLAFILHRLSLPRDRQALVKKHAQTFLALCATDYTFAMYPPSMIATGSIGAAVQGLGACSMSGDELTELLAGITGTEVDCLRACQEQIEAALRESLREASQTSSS
T2 sequence (P11362 456-766 L457V/C488A/C584S): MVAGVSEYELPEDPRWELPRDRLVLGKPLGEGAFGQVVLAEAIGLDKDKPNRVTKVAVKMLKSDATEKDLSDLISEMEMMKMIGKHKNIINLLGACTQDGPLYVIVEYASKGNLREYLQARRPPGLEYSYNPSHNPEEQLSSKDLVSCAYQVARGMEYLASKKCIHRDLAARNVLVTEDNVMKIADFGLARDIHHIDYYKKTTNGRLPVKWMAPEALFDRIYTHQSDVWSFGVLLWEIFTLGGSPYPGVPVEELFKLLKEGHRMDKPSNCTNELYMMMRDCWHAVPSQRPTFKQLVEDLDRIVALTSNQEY

Regarding `Cc1c(O)cccc1-c1ccc2[nH]nc(-c3nc4ccccc4[nH]3)c2c1` [10′, 3-[3-(1H-Benzoimidazol-2-yl)-1H-indazol-5-yl]-2-methyl-phenol], the values for the Ki on CDK4/cyclin D3 and on CDK2/cyclin A were 74 nM and 33 nM, respectively. The inhibition at 1 µM at FGFR1 tyrosine kinase amounted to 61%.
The matching figures for `Cc1c(O)cccc1-c1ccc2[nH]nc(/C=C/c3ccccc3)c2c1` [15′, 2-Methyl-3-[3-((E)-styryl)-1H-indazol-5-yl]-phenol]: 18 nM, 62 nM and 87%.
Take `Fc1ccccc1-c1ccc2[nH]nc(-c3nc4ccccc4[nH]3)c2c1` [Example 6, 3-(1H-Benzoimidazol-2-yl)-5-(2-fluorophenyl)-1H-Indazole]: the figures for the Ki on CDK4/cyclin D3 and on CDK2/cyclin A were 200 nM and 160 nM, respectively. Moreover, the inhibition at 1 µM on FGFR1 tyrosine kinase came to 53%.
Turning to `C(=C\c1n[nH]c2ccc(-c3cncc4ccccc34)cc12)/c1ccccc1` [Example 16], the Ki at CDK4/cyclin D3 amounted to 35 nM; at CDK2/cyclin A it was 15 nM; at FGFR1 tyrosine kinase, 1000 nM.
On the same counts, the results for `OCc1cccc2[nH]c(-c3n[nH]c4ccc(-c5cncc6ccccc56)cc34)nc12` [Example 29, [2-(5-Isoquinolin-4-yl-1H-indazol-3-yl)-1H-benzoimidazol-4-yl]-methanol] are 7.7 nM, 0.47 nM and 2200 nM.
As for `CN(C)Cc1cccc2[nH]c(-c3n[nH]c4ccc(-c5cncc6ccccc56)cc34)nc12` [Example 31, [2-(5-Isoquinolin-4-yl-1H-indazol-3-yl)-1H-benzoimidazol-4-ylmethyl]-dimethyl-amine], the results for the Ki on CDK4/cyclin D3 and on CDK2/cyclin A were 0.37 nM and 0.21 nM, respectively. Further, the inhibition at 1 µM on FGFR1 tyrosine kinase came to 55.5%.
On the same counts, the results for `CCN(CC)Cc1cccc2[nH]c(-c3n[nH]c4ccc(-c5cncc6ccccc56)cc34)nc12` [Example 36, Diethyl-[2-(5-isoquinolin-4-yl-1H-indazol-3-yl)-1H-benzoimidazol-4-ylmethyl]-amine] are 2.3 nM, 1 nM and 55.8%.
The matching figures for `CCNCc1cccc2[nH]c(-c3n[nH]c4ccc(-c5cncc6ccccc56)cc34)nc12` [Example 37, Ethyl-[2-(5-isoquinolin-4-yl-1H-indazol-3-yl)-1H-benzoimidazol-4-ylmethyl]-amine]: 0.76 nM, 0.22 nM and 34.4%.
On the same counts, the results for `CC(C)NCc1cccc2[nH]c(-c3n[nH]c4ccc(-c5cncc6ccccc56)cc34)nc12` [Example 38, Isopropyl-[2-(5-isoquinolin-4-yl-1H-indazol-3-yl)-1H-benzoimidazol-4-ylmethyl]-amine] are 0.798 nM, 1 nM and 42.4%.
In the case of `CCc1cncc(-c2ccc3[nH]nc(/C=C/c4ccccc4)c3c2)c1Cl` [Example 46, 5-(4-Chloro-5-ethyl-pyridin-3-yl)-3-(E)-styryl-1H-indazole], the Ki at CDK4/cyclin D3 was determined as 30 nM; on CDK2/cyclin A, 28 nM. In addition, the inhibition at 1 µM at FGFR1 tyrosine kinase turned out to be 50.5%.
On the same counts, the results for `c1ccc2[nH]c(-c3n[nH]c4ccc(-c5cccc6[nH]ccc56)cc34)nc2c1` [Example 48, 3-(1H-Benzoimidazol-2-yl)-5-(1H-indol-4-yl)-1H-indazole] are 21 nM, 55 nM and 68.5%.
For the compound `Clc1ccncc1-c1ccc2[nH]nc(-c3nc4ccccc4[nH]3)c2c1` [Example 52, 3-(1H-Benzoimidazol-2-yl)-5-(4-chloro-pyridin-3-yl)-1H-indazole], the Ki at CDK4/cyclin D3 worked out at 3.5 nM; at CDK2/cyclin A it was 2.6 nM. The inhibition at 1 µM on FGFR1 tyrosine kinase came out at 55%.
On the same counts, the results for `Cc1c(-c2ccncc2)cncc1-c1ccc2[nH]nc(-c3nc4ccccc4[nH]3)c2c1` [Example 53, 5-[3-(1H-Benzoimidazol-2-yl)-1H-indazol-5-yl]-4-methyl-[3,4′]bipyridinyl] are 2.6 nM, 0.29 nM and 32%.
The matching figures for `c1ccc2[nH]c(-c3n[nH]c4ccc(-c5cncc6c5CCCN6)cc34)nc2c1` [Example 54]: 26 nM, 0.27 nM and 81.5%.
Consider `O=C(Nc1cccc2c(-c3ccc4[nH]nc(-c5nc6ccccc6[nH]5)c4c3)cncc12)c1cccnc1` [Example 55, N-{4-[3-(1H-Benzoimidazol-2-yl)-1H-indazol-5-yl]-isoquinolin-8-yl}-nicotinamide], for which the Ki on CDK4/cyclin D3 turned out to be 41 nM; at CDK2/cyclin A, 1.1 nM. Moreover, the inhibition at 1 µM on FGFR1 tyrosine kinase came out at 83.6%.
Turning to `Cc1c(-c2cccnc2)cncc1-c1ccc2[nH]nc(-c3nc4ccccc4[nH]3)c2c1` [Example 58], the Ki at CDK4/cyclin D3 is 6.7 nM; on CDK2/cyclin A, 1 nM; on FGFR1 tyrosine kinase, 3000 nM. On FGFR1 tyrosine kinase, the inhibition at 1 µM was determined as 20.3%.
Regarding `Cc1c(/C=C/CO)cncc1-c1ccc2[nH]nc(-c3nc4ccccc4[nH]3)c2c1` [Example 59, (E)-3-{5-[3-(1H-Benzoimidazol-2-yl)-1H-indazol-5-yl]-4-methyl-pyridin-3-yl}-prop-2-en-1-ol], the Ki was 1.6 nM on CDK4/cyclin D3 and 0.58 nM at CDK2/cyclin A. At FGFR1 tyrosine kinase, the inhibition at 1 µM was determined as 47.6%.
On the same counts, the results for `Cc1c(CCCO)cncc1-c1ccc2[nH]nc(-c3nc4ccccc4[nH]3)c2c1` [Example 60, (E)-3-{5-[3-(1H-Benzoimidazol-2-yl)-1H-indazol-5-yl]-4-methyl-pyridin-3-yl}-propan-1-ol] are 1.6 nM, 0.6 nM and 40.8%.
`CCc1c(-c2ccncc2)cncc1-c1ccc2[nH]nc(-c3nc4ccccc4[nH]3)c2c1` [Example 61, 5-[3-(1H-Benzoimidazol-2yl)-1H-indazol-5-yl]-4ethyl-[3,4′]bipyridinyl]: the Ki is 17 nM at CDK4/cyclin D3, 1.2 nM on CDK2/cyclin A and 480 nM at FGFR1 tyrosine kinase. Moreover, at FGFR1 tyrosine kinase, the inhibition at 1 µM was determined as 60.7%.
Regarding `Cc1c(-c2cccc(CO)c2)cncc1-c1ccc2[nH]nc(-c3nc4ccccc4[nH]3)c2c1` [Example 69, (3-{5-[3-(1H-Benzoimidazol-2-yl)-1H-indazol-5-yl]-4-methyl-pyridin-3-yl}-phenyl)-methanol], the values for the Ki at CDK4/cyclin D3 and on CDK2/cyclin A were 15 nM and 4.1 nM, respectively. At FGFR1 tyrosine kinase, the inhibition at 1 µM turned out to be 25.6%.
Turning to `CS(=O)(=O)Nc1ccc2nc(-c3n[nH]c4ccc(-c5cncc6ccccc56)cc34)[nH]c2c1` [Example 70, N-[2-(5-Isoquinolin-4-yl-1H-indazol-3-yl)-3H-benzoimidazol-5-yl]-methanesulfonamide], the Ki on CDK4/cyclin D3 was determined as 1.8 nM; at CDK2/cyclin A, 0.23 nM. The inhibition at 1 µM on FGFR1 tyrosine kinase worked out at 63%.
On the same counts, the results for `Cc1c(-c2ccncc2)cncc1-c1ccc2[nH]nc(-c3nc4ccc(NS(C)(=O)=O)cc4[nH]3)c2c1` [Example 71, N-{2-[5-(4-methyl-[3,4′]bipyridinyl-5-yl)-1H-indazol-3-yl)-3H-benzoimidazol-5-yl]-methanesulfonamide] are 0.85 nM, 1 nM and 28.8%.
With `Cc1c(CO)cncc1-c1ccc2[nH]nc(-c3nc4ccccc4[nH]3)c2c1` [Example 72, {5-[3-(1H-Benzoimidazol-2-yl)-1H-indazol-5-yl]-4-methyl-pyridin-3-yl}-methanol], the Ki on CDK4/cyclin D3 amounted to 12 nM; on CDK2/cyclin A it was 7.6 nM. Also, the inhibition at 1 µM on FGFR1 tyrosine kinase was found to be 48.6%.
For `Cc1c(CN(C)C)cncc1-c1ccc2[nH]nc(-c3nc4ccccc4[nH]3)c2c1` [Example 73, {5-[3-(1H-Benzoimidazol-2-yl)-1H-indazol-5-yl]-4-methyl-pyridin-3-ylmethyl}-dimethyl-amine], the Ki on CDK4/cyclin D3 was determined as 6.9 nM; at CDK2/cyclin A, 2.7 nM. On FGFR1 tyrosine kinase, the inhibition at 1 µM was found to be 42.9%.
